This is an account of results in ChEMBL document CHEMBL5036318, “Synthesis and Biological Evaluation of Phosphoester and Phosphorothioate Prodrugs of STING Agonist 3',3'-c-Di(2'F,2'dAMP)” (J Med Chem, 2021).

The target of series [1] is T1, Stimulator of interferon genes protein (Homo sapiens, UniProt Q86WV6). The series is described as follows: Activation of wild-type human STING expressed in HEK293T cells co-expressing IRF3-activated ISRE assessed as IRF3 reporter activation measured after 30 mins by luciferase reporter gene assay. The class given is cell-based. A general note: In a reporter assay the amount or activity of a reporter protein is the signal.

The target in series [2] is T1, Stimulator of interferon genes protein. The series is described as follows: Activation of wild-type human STING expressed in HEK293T cells co-expressing IRF3-activated ISRE assessed as IRF3 reporter activation measured after 7 hrs by luciferase reporter gene assay. The format is cell-based.
The target is the same in series [3]. Nature of the series: Activation of wild-type human STING expressed in digitonin treated human THP1-Dual cells co-expressing IRF3-activated ISRE assessed as IRF3 reporter activation measured after 30 mins by luciferase reporter gene assay. The format is cell-based.
The target is the same in series [4]. The series is described as follows: Activation of wild-type human STING expressed in human THP1-Dual cells co-expressing IRF3-activated ISRE assessed as IRF3 reporter activation measured after 7 hrs by luciferase reporter gene assay. The format is cell-based.
A short description of series [5]: Induction of INF-alpha production in healthy human PBMC incubated for 16 hrs. The class given is functional, tissue-based.
A short description of series [6]: Potency index, ratio of test compound EC50 to prodrug EC50 for induction of INF-alpha production in healthy human PBMC incubated for 16 hrs. The format is functional.
A short description of series [7]: Induction of INF-gamma production in healthy human PBMC incubated for 16 hrs. The format is functional, tissue-based.
Series [8] is described as follows: Potency index, ratio of test compound EC50 to prodrug EC50 for induction of INF-gamma production in healthy human PBMC incubated for 16 hrs. The format is functional.
Series [9] is described as follows: Induction of TNF-alpha production in healthy human PBMC incubated for 16 hrs. The format is functional, tissue-based.
Series [10] can be described thus: Potency index, ratio of test compound EC50 to prodrug EC50 for induction of TNF-alpha production in healthy human PBMC incubated for 16 hrs. The class given is functional.
Series [11] in a line: Stability in human plasma assessed as half life. The class given is ADME, cell-free.
Series [12] is described as follows: Stability in mouse plasma assessed as half life. The class given is ADME, cell-free.
Series [13] has as its target T1, Stimulator of interferon genes protein. The series is described as follows: Activation of wild-type human STING expressed in digitonin treated HEK293T cells co-expressing IRF3-activated ISRE assessed as IRF3 reporter activation by luciferase reporter gene assay. The class given is cell-based.
The target in series [14] is Stimulator of interferon genes protein (Homo sapiens, UniProt Q86WV6, G230A/R293Q/R71H). The series is described as follows: Activation of human STING HAQ mutant expressed in digitonin treated HEK293T cells co-expressing IRF3-activated ISRE assessed as IRF3 reporter activation by luciferase reporter gene assay. The format is cell-based.
The target of series [15] is Stimulator of interferon genes protein (Homo sapiens, UniProt Q86WV6, G230A/R293Q). The series is described as follows: Activation of human STING QA mutant expressed in digitonin treated HEK293T cells co-expressing IRF3-activated ISRE assessed as IRF3 reporter activation by luciferase reporter gene assay. The format is cell-based.
Series [16] can be described thus: Activation of human STING Q mutant expressed in digitonin treated HEK293T cells co-expressing IRF3-activated ISRE assessed as IRF3 reporter activation by luciferase reporter gene assay. The format is cell-based. As to conditions: HEK-293T; call rule not given here.
The target in series [17] is T1, Stimulator of interferon genes protein. The series is described as follows: Binding affinity to wild type STING (unknown origin) assessed as change in melting temperature by differential scanning fluorimetry. As to conditions: filed as activator.
For series [18] the target is unchanged. The series is described as follows: Binding affinity to human STING expressed in […] cells assessed as change in melting temperature by Cell-based assay. As to conditions: HEK293T, filed as activator.
A further series is described as follows: cells. As to conditions: Homo sapiens, HEK-293T.
Series [19] can be described thus: Drug uptake in human THP1-Dual cells at 1.25 uM incubated for 2 hrs by HPLC-LS analysis. The class given is ADME, cell-based.
Series [20] is described as follows: Drug metabolism in human THP1-Dual cells assessed as 3',3'-c-di(2'F,2'dAMP) metabolite formation measured after 2 hrs by HPLC analysis. The format is ADME, cell-based.
Series [21] in a line: Drug metabolism in human THP1-Dual cells assessed as 3',3'-c-di(2'F,2'dAMP) metabolite formation measured after 24 hrs by HPLC analysis. The format is ADME, cell-based.
Series [22] is described as follows: Drug uptake in human THP1-Dual cells at 125 uM incubated for 24 hrs by HPLC-LS analysis. The class given is ADME, cell-based.
Series [23] is described as follows: Drug uptake in human THP1-Dual cells at extra cellular concentration incubated for 24 hrs by HPLC-LS analysis. The class given is ADME, cell-based.

Stimulator of interferon genes protein (Homo sapiens, UniProt Q86WV6, G230A/R293Q), sequence (Q86WV6 whole entry G230A/R293Q): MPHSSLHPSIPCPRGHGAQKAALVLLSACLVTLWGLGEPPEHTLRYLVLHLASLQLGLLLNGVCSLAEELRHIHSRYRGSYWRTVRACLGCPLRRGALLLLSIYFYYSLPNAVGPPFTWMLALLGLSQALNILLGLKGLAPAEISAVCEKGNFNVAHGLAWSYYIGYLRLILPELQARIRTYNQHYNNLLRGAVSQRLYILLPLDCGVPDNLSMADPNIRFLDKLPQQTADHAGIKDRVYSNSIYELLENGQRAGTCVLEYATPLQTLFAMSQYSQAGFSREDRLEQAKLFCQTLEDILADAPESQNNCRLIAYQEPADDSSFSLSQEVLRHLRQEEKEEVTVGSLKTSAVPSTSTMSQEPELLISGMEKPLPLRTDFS
Stimulator of interferon genes protein (Homo sapiens, UniProt Q86WV6, G230A/R293Q/R71H), sequence (Q86WV6 whole entry R71H/G230A/R293Q): as the sequence (Q86WV6 whole entry G230A/R293Q) above, with R71H counted along it
T1 sequence (Q86WV6 whole entry): as the sequence (Q86WV6 whole entry G230A/R293Q) above, with A230G, Q293R counted along it
Description for cells: Activation of human STING REF mutant expressed in digitonin treated HEK293T cells co-expressing IRF3-activated ISRE assessed as IRF3 reporter activation by luciferase reporter gene assay

A word on the EC50: it is the concentration that produces a half-maximal response. For orientation: half-life means the time in which the quantity being followed falls by half. For `CC(C)(C)C(=O)OCO[P@]1(=O)OC[C@H]2O[C@@H](n3cnc4c(N)ncnc43)[C@H](F)[C@@H]2O[P@](=O)(OCOC(=O)C(C)(C)C)OC[C@H]2O[C@@H](n3cnc4c(N)ncnc43)[C@H](F)[C@@H]2O1`, the EC50 is 30 nM in series [1]; 20 nM in series [2]; 110 nM in series [3]; 30 nM in series [4]; 220 nM in [5]; 60 nM in series [7]. The same compound displayed an EC50 in series [9] of 110 nM. Besides, the “Ratio EC50” value was found to be 234 in series [6], 148 in series [8] and 279 in series [10]. In addition, the figures for the half-life in series [11] and in [12] were 1.17 h and below 2 min, respectively.
A word on the ΔTm: it is the change in melting temperature against a reference sample. Consider `Nc1ncnc2c1ncn2[C@@H]1O[C@@H]2CO[P@@](=O)(S)O[C@H]3[C@@H](F)[C@H](n4cnc5c(N)ncnc54)O[C@@H]3COP(=O)(O)O[C@H]2[C@H]1F`, for which the EC50 in series [13] amounted to 40 nM; in [14], 100 nM; in series [15], 40 nM; in series [16] it was 100 nM. Moreover, the ΔTm in series [17] and in series [18] was 14.7 °C throughout.
In the case of `Nc1ncnc2c1ncn2[C@@H]1O[C@@H]2CO[P@@](=O)(S)O[C@H]3[C@@H](F)[C@H](n4cnc5c(N)ncnc54)O[C@@H]3CO[P@@](=O)(S)O[C@H]2[C@H]1F`, the EC50 came to 40 nM in series [13]; 80 nM in series [14]; 40 nM in series [15]; 80 nM in [16]; 7020 nM in series [1]; 3560 nM in series [3]. The EC50 in series [4] was determined as 360 nM; in [5] it was 38700 nM; in series [7] it was 6080 nM; in series [9], 9370 nM; in “cells” it was 130 nM. In addition, the ΔTm in [17] amounted to 15.9 °C.
As to `Nc1nc2c(ncn2[C@@H]2O[C@@H]3COP(=O)(O)O[C@H]4[C@@H](O)[C@H](n5cnc6c(=O)[nH]c(N)nc65)O[C@@H]4COP(=O)(O)O[C@H]3[C@H]2O)c(=O)[nH]1`, the EC50 is above 45000 nM in [16] and 8410 nM in “cells”.
As for `[3H]c1nc2c(N)ncnc2n1[C@@H]1O[C@@H]2CO[P@@](=O)(OCOC(=O)C(C)(C)C)O[C@H]3[C@@H](F)[C@H](n4c([3H])nc5c(N)ncnc54)O[C@@H]3CO[P@@](=O)(OCOC(=O)C(C)(C)C)O[C@H]2[C@H]1F`, the Drug uptake result in series [19] is “Active”. The Drug metabolism entry in [20] is “Metabolite_Detected”; in series [21] it was “Metabolite_Notdetected”.
Consider `Nc1ncnc2c1ncn2[C@@H]1O[C@@H]2CO[P@@](=O)(S)O[C@H]3[C@@H](F)[C@H](n4cnc5c(N)ncnc54)O[C@@H]3CO[P@](=O)(S)O[C@H]2[C@H]1F`, for which the EC50 in [13] stood at 20 nM; in [14], 50 nM; in series [16] it was 210 nM; in series [1], 520 nM; in series [3], 3030 nM; in series [4], 310 nM. The EC50 in series [5] amounted to 17700 nM; in [7] it was 11200 nM; in [9] it was 7290 nM; in the series “cells” it was 360 nM. Further, the ΔTm in series [17] and in series [18] was 11.2 °C throughout.
In the case of `CC(C)(C)C(=O)OCO[P@@]1(=O)OC[C@H]2O[C@@H](n3cnc4c(N)ncnc43)[C@H](F)[C@@H]2O[P@](=O)(OCOC(=O)C(C)(C)C)OC[C@H]2O[C@@H](n3cnc4c(N)ncnc43)[C@H](F)[C@@H]2O1`, the EC50 worked out at 70 nM in series [1]; 40 nM in series [2]; 180 nM in series [3]; 50 nM in series [4]; 440 nM in series [5]; 70 nM in series [7]. In series [9], the midpoint of the response, the EC50, lay at 240 nM. Moreover, the “Ratio EC50” value in [6] is recorded as 115; in [8] it was 110. Besides, the half-life in [11] is 1 h; in [12] it was below 2 min.
`Nc1ncnc2c1ncn2[C@@H]1O[C@@H]2CO[P@](=O)(S)O[C@H]3[C@@H](F)[C@H](n4cnc5c(N)ncnc54)O[C@@H]3COP(=O)(O)O[C@H]2[C@H]1F`: the EC50 in series [13] is 7 nM; in series [14], 130 nM; in [15] it was 70 nM; in series [16], 450 nM; in “cells”, 920 nM. Further, the ΔTm in series [17] and in series [18] was 8.9 °C in each case.
As to `[3H]c1nc2c(N)ncnc2n1[C@@H]1O[C@@H]2COP(=O)(O)O[C@H]3[C@@H](F)[C@H](n4c([3H])nc5c(N)ncnc54)O[C@@H]3COP(=O)(O)O[C@H]2[C@H]1F`, the Drug uptake entry in series [22] and in series [23] was “Not Active” each time.
Turning to `Nc1ncnc2c1ncn2[C@@H]1O[C@@H]2CO[P@](=O)(S)O[C@H]3[C@@H](F)[C@H](n4cnc5c(N)ncnc54)O[C@@H]3CO[P@](=O)(S)O[C@H]2[C@H]1F`, the EC50 in series [13] came out at 170 nM; in [14], 880 nM; in series [15], 260 nM; in series [16], 4070 nM; in series [1] it was 2280 nM; in [3], 12100 nM. For the same compound, the EC50 is 7790 nM in series [4]; 29600 nM in series [5]; 9870 nM in series [7]; 26800 nM in series [9]; 8700 nM in the series “cells”. The ΔTm in [17] came out at 5.5 °C.
Take `Nc1ncnc2c1ncn2[C@@H]1O[C@@H]2COP(=O)(O)O[C@H]3[C@@H](O)[C@H](n4cnc5c(N)ncnc54)O[C@@H]3COP(=O)(O)O[C@H]2[C@H]1O`: the EC50 was determined as 190 nM in series [14], 170 nM in [15] and 7090 nM in [16].
`Nc1ncnc2c1ncn2[C@@H]1O[C@@H]2COP(=O)(O)O[C@H]3[C@@H](F)[C@H](n4cnc5c(N)ncnc54)O[C@@H]3COP(=O)(O)O[C@H]2[C@H]1F`: the EC50 turned out to be 20 nM in series [13]; 130 nM in [14]; 140 nM in [16]; 96500 nM in series [1]; 7990 nM in series [2]; 19100 nM in [3]. Besides, the EC50 was determined as 1030 nM in [4]; 51000 nM in series [5]; 8230 nM in series [7]; 12800 nM in [9]; 180 nM in “cells”.
`[3H]c1nc2c(N)ncnc2n1[C@@H]1O[C@@H]2CO[P@@](=O)(OCOC(=O)C(C)(C)C)O[C@H]3[C@@H](F)[C@H](n4c([3H])nc5c(N)ncnc54)O[C@@H]3CO[P@](=O)(OCOC(=O)C(C)(C)C)O[C@H]2[C@H]1F`: the Drug uptake result in series [19] is on record as “Active”. Besides, the Drug metabolism result is listed as “Metabolite_Detected” in [20] and “Metabolite_Notdetected” in [21].
